Assay results from ChEMBL document CHEMBL1201862, “PubChem BioAssay data set” (2004).
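Values below derive from 48-hour exposures of cells grown in 96-well plates, with endpoints linearly interpolated between the two concentrations bracketing the appropriate inhibition level. Here, GI50 denotes the concentration required for 50% inhibition of growth.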 Calls of active or inactive are those of the source. Rule as the data show it: active = GI50 up to about 1.1 µM and inactive = higher.

Columns and labels:
Assay in all cases: growth of human tumour cells (NCI), 48 h
U-251 = tested on: U-251
LXFL 529 = tested on: LXFL 529
SW-620 = tested on: SW-620
NCI-H23 = tested on: NCI-H23
OVCAR-8 = tested on: OVCAR-8
NCI-H522 = tested on: NCI-H522
MOLT-4 = tested on: MOLT-4
KM12 = tested on: KM12
SF-539 = tested on: SF-539
SNB-19 = tested on: SNB-19
NCI-H460 = tested on: NCI-H460
EKVX = tested on: EKVX
CCRF-CEM = tested on: CCRF-CEM
UACC-62 = tested on: UACC-62
M19-MEL = tested on: M19-MEL
Malme-3M = tested on: Malme-3M

| Structure (SMILES) | GI50 (U-251) | GI50 (LXFL 529) | GI50 (SW-620) | GI50 (NCI-H23) | GI50 (OVCAR-8) | GI50 (NCI-H522) | GI50 (MOLT-4) | GI50 (KM12) | GI50 (SF-539) | GI50 (SNB-19) | GI50 (NCI-H460) | GI50 (EKVX) | GI50 (CCRF-CEM) | GI50 (UACC-62) | GI50 (M19-MEL) | GI50 (Malme-3M) |
| --- | --- | --- | --- | --- | --- | --- | --- | --- | --- | --- | --- | --- | --- | --- | --- | --- |
| O=c1c2cccc3cccc(c4oc5c6cccc7cccc(c(=O)c5c14)c76)c32 | 12.7 µM (inactive) | 11.1 µM (inactive) | 11.8 µM (inactive) | 13.2 µM (inactive) | 11.1 µM (inactive) | 5.4 µM (inactive) | 12.5 µM (inactive) | 13.8 µM (inactive) | 15.8 µM (inactive) | 11.6 µM (inactive) | 12.5 µM (inactive) | 12.2 µM (inactive) | 5.47 µM (inactive) | 12.8 µM (inactive) | 12 µM (inactive) | 12.5 µM (inactive) |
| Cc1ccc(-c2cc(=O)c3cc(C)c(C)c(C(=O)O)c3o2)cc1N | > 100 µM (inactive) | > 100 µM (inactive) | > 100 µM (inactive) | > 100 µM (inactive) | > 100 µM (inactive) | > 100 µM (inactive) | > 100 µM (inactive) | > 100 µM (inactive) | > 100 µM (inactive) | > 100 µM (inactive) | > 100 µM (inactive) | > 100 µM (inactive) | > 100 µM (inactive) | > 100 µM (inactive) | > 100 µM (inactive) | > 100 µM (inactive) |
| CC(=O)SC(SC(C)=O)SC(C)=O | > 100 µM (inactive) | 51.8 µM (inactive) | > 100 µM (inactive) | > 100 µM (inactive) | > 100 µM (inactive) | 20.7 µM (inactive) | 43.9 µM (inactive) | > 100 µM (inactive) | > 100 µM (inactive) | > 100 µM (inactive) | > 100 µM (inactive) | > 100 µM (inactive) | 22.5 µM (inactive) | 84.1 µM (inactive) | > 100 µM (inactive) | > 100 µM (inactive) |
| O=C(C(=O)c1cc2ccccc2[nH]1)c1cc2ccccc2[nH]1 | > 347 µM (inactive) | > 210 µM (inactive) | 153 µM (inactive) | > 255 µM (inactive) | > 224 µM (inactive) | 13.8 µM (inactive) | 24 µM (inactive) | > 347 µM (inactive) | > 347 µM (inactive) | > 347 µM (inactive) | > 321 µM (inactive) | > 347 µM (inactive) | > 247 µM (inactive) | > 347 µM (inactive) | > 195 µM (inactive) | 152 µM (inactive) |
| c1ccc2c(c1)CCCc1cc3ccccc3nc1-2 | > 100 µM (inactive) | > 100 µM (inactive) | > 100 µM (inactive) | > 100 µM (inactive) | > 100 µM (inactive) | 82.4 µM (inactive) | 57.5 µM (inactive) | > 100 µM (inactive) | > 100 µM (inactive) | > 100 µM (inactive) | > 100 µM (inactive) | > 100 µM (inactive) | 94.6 µM (inactive) | > 100 µM (inactive) | > 100 µM (inactive) | > 100 µM (inactive) |
| C=CCNC(=S)N/C=C1\C(=O)Oc2ccccc2C1=O | 59.8 µM (inactive) | > 100 µM (inactive) | 74.6 µM (inactive) | > 100 µM (inactive) | 58.5 µM (inactive) | 65.6 µM (inactive) | > 100 µM (inactive) | 87.5 µM (inactive) | 55.5 µM (inactive) | 59.4 µM (inactive) | > 100 µM (inactive) | > 100 µM (inactive) | > 100 µM (inactive) | 46.3 µM (inactive) | > 100 µM (inactive) | 27.4 µM (inactive) |
| COc1ccc(O)cc1C(O)c1ccccc1 (configuration not stated) | > 100 µM (inactive) | > 100 µM (inactive) | > 100 µM (inactive) | > 100 µM (inactive) | > 100 µM (inactive) | > 100 µM (inactive) | > 100 µM (inactive) | > 100 µM (inactive) | > 100 µM (inactive) | > 100 µM (inactive) | > 100 µM (inactive) | > 100 µM (inactive) | > 100 µM (inactive) | > 100 µM (inactive) | > 100 µM (inactive) | > 100 µM (inactive) |
| COc1ccc(C2=Nc3ccccc3N=C(SC)C2)cc1 | 32.2 µM (inactive) | 46.1 µM (inactive) | 16.9 µM (inactive) | 32.8 µM (inactive) | 59.3 µM (inactive) | 22.9 µM (inactive) | 25.5 µM (inactive) | 27.5 µM (inactive) | > 100 µM (inactive) | > 100 µM (inactive) | 24.5 µM (inactive) | 41 µM (inactive) | 13.2 µM (inactive) | > 100 µM (inactive) | 39.8 µM (inactive) | > 100 µM (inactive) |
| C=CCC1=C(C)C[C@@H]2CCC(=O)C=C12 | > 100 µM (inactive) | > 100 µM (inactive) | > 100 µM (inactive) | > 100 µM (inactive) | > 100 µM (inactive) | > 100 µM (inactive) | > 100 µM (inactive) | > 100 µM (inactive) | > 100 µM (inactive) | > 100 µM (inactive) | > 100 µM (inactive) | > 100 µM (inactive) | > 100 µM (inactive) | > 100 µM (inactive) | > 100 µM (inactive) | > 100 µM (inactive) |
| N#CC(/C(=N/NC(=N)N)C(=O)Nc1ccccc1[N+](=O)[O-])c1nc(-c2ccc([N+](=O)[O-])cc2)cs1 (configuration not stated) | > 100 µM (inactive) | > 100 µM (inactive) | > 100 µM (inactive) | > 100 µM (inactive) | > 100 µM (inactive) | > 100 µM (inactive) | > 100 µM (inactive) | > 100 µM (inactive) | > 100 µM (inactive) | > 100 µM (inactive) | > 100 µM (inactive) | > 100 µM (inactive) | > 100 µM (inactive) | > 100 µM (inactive) | > 100 µM (inactive) | > 100 µM (inactive) |
| O=c1[nH]c(=O)n(C2OC(CO)C(O)C2O)cc1OCc1ccccc1 (configuration not stated) | > 58.2 µM (inactive) | > 80.4 µM (inactive) | > 57 µM (inactive) | > 100 µM (inactive) | > 77.6 µM (inactive) | > 100 µM (inactive) | > 100 µM (inactive) | > 100 µM (inactive) | > 100 µM (inactive) | > 100 µM (inactive) | > 66.7 µM (inactive) | > 100 µM (inactive) | > 60.5 µM (inactive) | > 100 µM (inactive) | > 95.5 µM (inactive) | > 100 µM (inactive) |
| CC(C)=CC1C[C@H](C2CC=C3C2(C)CCC2[C@@]3(C)C(=O)CC3[C@]2(C)C=CC(=O)[C@]3(C)CO)CO1 (some centres not stated) | 8.83 µM (inactive) | 3.45 µM (inactive) | 4.28 µM (inactive) | 5.42 µM (inactive) | 4.55 µM (inactive) | 2.73 µM (inactive) | 2.7 µM (inactive) | 5.92 µM (inactive) | 4.57 µM (inactive) | 19 µM (inactive) | 11.6 µM (inactive) | 26.2 µM (inactive) | 2.96 µM (inactive) | 11.8 µM (inactive) | 3.85 µM (inactive) | 11.5 µM (inactive) |
| O=C(NCCO)c1ccc([N+](=O)[O-])cc1 | > 100 µM (inactive) | > 100 µM (inactive) | > 100 µM (inactive) | > 100 µM (inactive) | > 100 µM (inactive) | > 100 µM (inactive) | > 100 µM (inactive) | > 100 µM (inactive) | > 100 µM (inactive) | > 100 µM (inactive) | > 100 µM (inactive) | > 100 µM (inactive) | > 100 µM (inactive) | > 100 µM (inactive) | > 100 µM (inactive) | > 100 µM (inactive) |
| COc1cc2c(cc1OC)CC(=O)Nc1cc(OC)c(OC)cc1CC2 | 54.7 µM (inactive) | > 73.3 µM (inactive) | 47.9 µM (inactive) | > 82.6 µM (inactive) | 53.8 µM (inactive) | 17.3 µM (inactive) | 52.5 µM (inactive) | 43.6 µM (inactive) | 33.2 µM (inactive) | 99.8 µM (inactive) | 39.3 µM (inactive) | > 100 µM (inactive) | 51.2 µM (inactive) | 36.1 µM (inactive) | 31.8 µM (inactive) | 20.8 µM (inactive) |
| CCC(=C(c1ccc(OCc2ccccc2)cc1)c1ccc(OCc2ccccc2)cc1)c1ccc(OC)cc1 | > 100 µM (inactive) | > 100 µM (inactive) | > 100 µM (inactive) | > 100 µM (inactive) | > 100 µM (inactive) | > 100 µM (inactive) | > 100 µM (inactive) | > 100 µM (inactive) | > 100 µM (inactive) | > 100 µM (inactive) | > 100 µM (inactive) | > 100 µM (inactive) | > 100 µM (inactive) | > 100 µM (inactive) | > 100 µM (inactive) | > 100 µM (inactive) |
| Cc1c(Cl)cccc1NC(=O)C(=O)C1C(=O)CC(C)(C)CC1=O | > 100 µM (inactive) | > 100 µM (inactive) | > 100 µM (inactive) | > 100 µM (inactive) | > 100 µM (inactive) | > 100 µM (inactive) | > 100 µM (inactive) | > 100 µM (inactive) | > 100 µM (inactive) | > 100 µM (inactive) | > 100 µM (inactive) | > 100 µM (inactive) | > 100 µM (inactive) | > 100 µM (inactive) | > 100 µM (inactive) | > 100 µM (inactive) |
| COc1ccc(CN[C@H]2CCc3cc(OC)c(OC)c(OC)c3-c3ccc(SC)c(=O)cc32)c(OC)c1OC | 0.0194 µM (active) | 0.0447 µM (active) | 0.0416 µM (active) | 0.0219 µM (active) | 0.0277 µM (active) | 0.0216 µM (active) | 0.0361 µM (active) | 0.0308 µM (active) | 0.0211 µM (active) | 0.0658 µM (active) | 0.026 µM (active) | 0.0237 µM (active) | 0.0356 µM (active) | 0.023 µM (active) | 0.0338 µM (active) | 0.0484 µM (active) |
